Source: patent US20240132513A1, “BENZAZEPINE DERIVATIVES, COMPOSITIONS, AND METHODS FOR TREATING COGNITIVE IMPAIRMENT” (AGENEBIO, INC., priority 2022, published 2024)
Like-named read-outs stand apart in the source and are kept apart here.

Tests used:
α5β3γ2 GABAA R = α5β3γ2 GABAA R (Homo sapiens, UniProt P18507+P31644); assay: Binding activity on GABAA R: inhibition of [3H]Ro15-1788 binding, α5 containing receptor
In short: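 Displacement of [3H]Ro15-1788 (flumazenil) measured at 4 °C over 1 h using 0.2 mg/ml membrane protein from Ltk cells carrying α5β3γ2 GABAA receptors, expression induced with 0.5 μM dexamethasone for 1 day; buffer pH 7.4 KH2PO4/EDTA/KCl. 10 μM diazepam defined nonspecific binding; filter-trapped radioactivity counted, in triplicate.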

GABAA R (α5β2γ2) = molecular target: T1, GABAA R (α5β2γ2) (Homo sapiens, UniProt P18507+P31644); assay: Positive allosteric modulator activity: potentiation of EC20 GABA current in oocytes; type: cell-based
T1 construct: expressed in transfected cells
T1 sequence (P31644 32-462): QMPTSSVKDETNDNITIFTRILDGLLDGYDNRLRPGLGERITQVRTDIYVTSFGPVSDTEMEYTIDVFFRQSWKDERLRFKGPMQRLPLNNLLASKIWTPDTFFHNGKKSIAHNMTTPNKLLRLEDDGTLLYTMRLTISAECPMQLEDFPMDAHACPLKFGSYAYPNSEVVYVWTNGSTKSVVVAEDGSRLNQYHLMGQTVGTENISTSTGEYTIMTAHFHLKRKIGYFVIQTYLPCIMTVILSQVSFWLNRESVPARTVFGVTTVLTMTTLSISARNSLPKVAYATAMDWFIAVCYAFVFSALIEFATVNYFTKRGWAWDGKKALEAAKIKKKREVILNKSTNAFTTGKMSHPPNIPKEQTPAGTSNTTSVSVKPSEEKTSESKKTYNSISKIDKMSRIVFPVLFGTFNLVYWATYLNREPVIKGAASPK
T1 sequence (P47870 25-512 partner limits assumed): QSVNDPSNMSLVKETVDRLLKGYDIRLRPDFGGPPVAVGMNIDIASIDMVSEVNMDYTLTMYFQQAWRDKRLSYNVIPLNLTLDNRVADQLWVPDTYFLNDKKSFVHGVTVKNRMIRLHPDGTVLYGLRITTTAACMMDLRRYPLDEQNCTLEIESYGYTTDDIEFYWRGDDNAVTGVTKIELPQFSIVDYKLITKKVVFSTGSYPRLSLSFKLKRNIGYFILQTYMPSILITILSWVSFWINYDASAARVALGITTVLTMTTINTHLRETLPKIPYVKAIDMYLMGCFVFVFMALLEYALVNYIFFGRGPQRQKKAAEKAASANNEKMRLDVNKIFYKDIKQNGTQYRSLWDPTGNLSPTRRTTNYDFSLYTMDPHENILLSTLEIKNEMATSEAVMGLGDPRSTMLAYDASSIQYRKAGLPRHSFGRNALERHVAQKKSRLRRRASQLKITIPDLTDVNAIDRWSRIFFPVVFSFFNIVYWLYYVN
T1 sequence (P18507 40-475): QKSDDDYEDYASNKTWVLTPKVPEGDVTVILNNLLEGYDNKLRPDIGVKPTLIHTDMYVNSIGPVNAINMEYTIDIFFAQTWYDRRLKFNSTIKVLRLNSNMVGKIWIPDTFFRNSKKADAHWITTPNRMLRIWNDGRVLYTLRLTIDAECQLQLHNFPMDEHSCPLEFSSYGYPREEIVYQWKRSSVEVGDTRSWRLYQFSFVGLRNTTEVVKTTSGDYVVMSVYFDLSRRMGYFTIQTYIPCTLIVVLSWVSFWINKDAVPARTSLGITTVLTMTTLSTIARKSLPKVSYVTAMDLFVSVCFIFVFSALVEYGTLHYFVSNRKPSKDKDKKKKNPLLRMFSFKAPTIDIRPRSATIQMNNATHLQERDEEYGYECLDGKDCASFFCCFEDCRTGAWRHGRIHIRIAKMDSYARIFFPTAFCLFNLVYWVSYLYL
In short: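 Xenopus oocytes injected with 1 ng α5:β2:γ2 cDNA (1:1:10 by weight), tested day 2, voltage-clamped at −60 mV under MBS superfusion.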

[1] = read-out: GABA α5 Functional Data: potentiation, @ 100 nM, EC20 GABA, ranges of the column heads
[2] = ranges of the column heads, [3H]Ro15-1788, Ltk cell membranes
[3] = read-out: GABA α5 Functional Data: potentiation

Chain of α5β3γ2 GABAA R (P31644 32-462): as the sequence (P31644 32-462) above
Chain of α5β3γ2 GABAA R (P28472 26-473 partner): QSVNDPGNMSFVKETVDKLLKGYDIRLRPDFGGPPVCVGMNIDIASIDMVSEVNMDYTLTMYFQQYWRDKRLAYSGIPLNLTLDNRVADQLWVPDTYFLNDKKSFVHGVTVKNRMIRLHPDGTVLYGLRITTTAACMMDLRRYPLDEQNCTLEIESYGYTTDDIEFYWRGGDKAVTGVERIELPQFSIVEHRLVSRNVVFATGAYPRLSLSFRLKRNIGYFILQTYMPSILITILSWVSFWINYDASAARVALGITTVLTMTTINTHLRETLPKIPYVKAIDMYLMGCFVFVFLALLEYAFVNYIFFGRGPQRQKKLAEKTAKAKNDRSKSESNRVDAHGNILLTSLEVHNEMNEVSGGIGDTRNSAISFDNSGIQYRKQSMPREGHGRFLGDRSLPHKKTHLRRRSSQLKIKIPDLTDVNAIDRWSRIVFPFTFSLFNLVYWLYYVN
Chain of α5β3γ2 GABAA R (P18507 40-475): as the sequence (P18507 40-475) above

Compound	Ki (α5β3γ2 GABAA R)	activation at 0.1 µM (GABAA R (α5β2γ2); [1])	Ki (α5β3γ2 GABAA R; [2])	activation at 0.1 µM (GABAA R (α5β2γ2); [3])
COc1ccc2c(c1)-c1nn(CC3CCCO3)cc1Cc1c(-c3nc(C(C)C)no3)ncn1-2 (stereo not drawn) [Compound 231]	< 100 nM	5 to 20%	–	–
CCn1cc2c(n1)-c1cc(OC)ccc1-n1cnc(-c3noc(C(C)(C)OC)n3)c1C2 [Compound 255]	< 100 nM	5 to 20%	–	–
CC(C)n1cc2c(n1)-c1cc(Cl)ccc1-n1cnc(-c3nc(C4CC4)no3)c1C2 [Compound 154]	< 100 nM	5 to 20%	–	–
COc1ccc2c(c1)-c1nn(Cc3ccccc3)cc1Cc1c(-c3cnn(Cc4ccccc4)c3)ncn1-2 [Compound 76]	–	–	< 100 nM	20 to 50%
CCn1cc2c(n1)-c1cc(Cl)ccc1-n1cnc(-c3nc(C4CC4)no3)c1C2 [Compound 133]	–	–	< 100 nM	20 to 50%
COc1ccc2c(c1)-c1nn(C)cc1Cc1c(-c3noc(C(C)C)n3)ncn1-2 [Compound 109]	–	–	< 100 nM	20 to 50%
Clc1ccc2c(c1)-c1[nH]ncc1Cc1c(C#Cc3cccnc3)ncn1-2 [Compound 64]	< 100 nM	> 50%	–	–
Cc1noc(-c2ncn3c2Cc2cn(CC4CCOC4)nc2-c2cc(Cl)ccc2-3)n1 (stereo not drawn) [Compound 161]	< 100 nM	20 to 50%	–	–
CC(C)n1cc2c(n1)-c1cc(Cl)ccc1-n1cnc(-c3noc(C4COCCO4)n3)c1C2 (stereo not drawn) [Compound 268]	< 100 nM	20 to 50%	–	–
COc1ccc2c(c1)-c1[nH]ncc1Cc1c(C#Cc3ccnn3C)ncn1-2 [Compound 39]	–	–	< 100 nM	20 to 50%
Cn1cc2c(n1)-c1cc(Cl)ccc1-n1cnc(-c3noc(C(C)(C)C)n3)c1C2 [Compound 143]	< 100 nM	5 to 20%	–	–
COc1ccc2c(c1)-c1nn(C)cc1Cc1c(-c3noc(C4COCCO4)n3)ncn1-2 (stereo not drawn) [Compound 207]	< 100 nM	20 to 50%	–	–
COc1ccc2c(c1)-c1nn(C)cc1Cc1c(-c3nc(C)no3)ncn1-2 [Compound 20]	< 100 nM	5 to 20%	–	–
COc1ccc2c(c1)-c1nn(C)cc1Cc1c(-c3noc([C@H]4CCCO4)n3)ncn1-2 [Compound 258]	< 100 nM	5 to 20%	–	–
COc1ccc2c(c1)-c1nn(C)cc1Cc1c(-c3nc([C@H]4CCOC4)no3)ncn1-2 [Compound 252]	< 100 nM	20 to 50%	–	–
CC(C)(C)C#Cc1ncn2c1Cc1cn[nH]c1-c1cc(Cl)ccc1-2 [Compound 63]	–	–	< 100 nM	20 to 50%
COC(C)(C)c1nc(-c2ncn3c2Cc2cn(CC4CCCO4)nc2-c2cc(Cl)ccc2-3)no1 (stereo not drawn) [Compound 306]	< 100 nM	5 to 20%	–	–
Cn1cc2c(n1)-c1cc(Cl)ccc1-n1cnc(-c3cnn(Cc4cccnc4)c3)c1C2 [Compound 208]	< 100 nM	5 to 20%	–	–
COc1ccc2c(c1)-c1nn(CC3CCCO3)cc1Cc1c(-c3noc(C(F)(F)F)n3)ncn1-2 (stereo not drawn) [Compound 295]	< 100 nM	20 to 50%	–	–
COc1ccc2c(c1)-c1nn(CC3CC3)cc1Cc1c(-c3nc(C4CC4)no3)ncn1-2 [Compound 171]	< 100 nM	5 to 20%	–	–
COc1ccc2c(c1)-c1n[nH]cc1Cc1c(-c3noc(C(C)(C)OC)n3)ncn1-2 [Compound 181]	–	–	< 100 nM	> 50%
COc1ccc2c(c1)-c1nn(C)cc1Cc1c(-c3noc(COC(C)(C)C)n3)ncn1-2 [Compound 296]	< 100 nM	20 to 50%	–	–
COc1ccc2c(c1)-c1[nH]ncc1Cc1c(-c3noc(C4(OC)CC4)n3)ncn1-2 [Compound 188]	–	–	< 100 nM	> 50%
FC(F)(F)c1noc(-c2ncn3c2Cc2cn(CC4CCOC4)nc2-c2cc(Cl)ccc2-3)n1 (stereo not drawn) [Compound 200]	–	–	< 100 nM	20 to 50%
COc1ccc2c(c1)-c1nn(C)cc1Cc1c(-c3nc(C4CCOC4)no3)ncn1-2 (stereo not drawn) [Compound 126]	< 100 nM	20 to 50%	–	–
COC(C)(C)c1noc(-c2ncn3c2Cc2cn(C)nc2-c2cc(Cl)ccc2-3)n1 [Compound 233]	–	–	< 100 nM	5 to 20%

Compound	Ki (α5β3γ2 GABAA R)	activation at 0.1 µM (GABAA R (α5β2γ2); [1])	Ki (α5β3γ2 GABAA R; [2])	activation at 0.1 µM (GABAA R (α5β2γ2); [3])
COc1ccc2c(c1)-c1[nH]ncc1Cc1c(-c3nc(C(C)(C)C)no3)ncn1-2 [Compound 11]	< 100 nM	5 to 20%	–	–
Clc1ccc2c(c1)-c1c(cnn1CC1CC1)Cc1c(-c3nc(C4CC4)no3)ncn1-2 [Compound 162]	< 100 nM	5 to 20%	–	–
COc1ccc2c(c1)-c1nn(CC3CC3)cc1Cc1c(-c3nc(C(F)(F)F)no3)ncn1-2 [Compound 116]	< 100 nM	5 to 20%	–	–
COc1ccc2c(c1)-c1nn(Cc3ccccc3)cc1Cc1c(-c3nc(C(C)C)no3)ncn1-2 [Compound 44]	< 100 nM	20 to 50%	–	–
COc1ccc2c(c1)-c1nn(C3CCOC3)cc1Cc1c(-c3noc(COCC(F)(F)F)n3)ncn1-2 (stereo not drawn) [Compound 279]	< 100 nM	20 to 50%	–	–
CCn1cc2c(n1)-c1cc(OC)ccc1-n1cnc(-c3noc(COCC(F)(F)F)n3)c1C2 [Compound 254]	< 100 nM	20 to 50%	–	–
Cn1cc2c(n1)-c1cc(Cl)ccc1-n1cnc(-c3nc(CN4CCOCC4)no3)c1C2 [Compound 250]	–	–	< 100 nM	> 50%
COc1ccc2c(c1)-c1[nH]ncc1Cc1c(C#Cc3cccnc3)ncn1-2 [Compound 91]	< 100 nM	5 to 20%	–	–
COc1ccc2c(c1)-c1[nH]ncc1Cc1c(C3=N[C@H](c4ccccc4)CO3)ncn1-2 [Compound 14]	< 100 nM	5 to 20%	–	–
COc1ccc2c(c1)-c1c(cnn1Cc1ccccc1)Cc1c(-c3nc(C)no3)ncn1-2 [Compound 7]	–	–	< 100 nM	20 to 50%
CCn1cc2c(n1)-c1cc(Cl)ccc1-n1cnc(-c3nc(C4CCOC4)no3)c1C2 (stereo not drawn) [Compound 192]	–	–	< 100 nM	20 to 50%
COc1ccc2c(c1)-c1nn(CC3CCCO3)cc1Cc1c(-c3nnc(COCC(F)(F)F)o3)ncn1-2 (stereo not drawn) [Compound 303]	< 100 nM	20 to 50%	–	–
CC(C)c1noc(-c2ncn3c2Cc2cn(C(C)C)nc2-c2cc(Cl)ccc2-3)n1 [Compound 138]	< 100 nM	20 to 50%	–	–
COc1ccc(C#Cc2ncn3c2Cc2cn[nH]c2-c2cc(Cl)ccc2-3)cn1 [Compound 52]	< 100 nM	5 to 20%	–	–
COc1ccc(Cn2ncc3c2-c2cc(OC)ccc2-n2cnc(-c4noc(COCC(F)(F)F)n4)c2C3)cc1 [Compound 173]	< 100 nM	5 to 20%	–	–
CCn1cc2c(n1)-c1cc(Cl)ccc1-n1cnc(-c3noc(C4(OC)CC4)n3)c1C2 [Compound 198]	–	–	< 100 nM	20 to 50%
Clc1ccc2c(c1)-c1nn(CC3CC3)cc1Cc1c(-c3ncco3)ncn1-2 [Compound 172]	–	–	< 100 nM	5 to 20%
Clc1ccc2c(c1)-c1[nH]ncc1Cc1c(C#Cc3ccccn3)ncn1-2 [Compound 94]	–	–	< 100 nM	20 to 50%
Cc1noc(-c2ncn3c2Cc2cn(C(C)C)nc2-c2cc(Cl)ccc2-3)n1 [Compound 160]	< 100 nM	20 to 50%	–	–
COc1ccc2c(c1)-c1nn(C3CCOC3)cc1Cc1c(-c3nc(C(F)(F)F)no3)ncn1-2 (stereo not drawn) [Compound 263]	< 100 nM	5 to 20%	–	–
CCOCc1nc(-c2ncn3c2Cc2cn(C)nc2-c2cc(Cl)ccc2-3)no1 [Compound 243]	–	–	< 100 nM	5 to 20%
Cn1cc2c(n1)-c1cc(Cl)ccc1-n1cnc(-c3nc(C4COC4)no3)c1C2 [Compound 237]	< 100 nM	20 to 50%	–	–
COc1ccc2c(c1)-c1nn(CC3CCCO3)cc1Cc1c(-c3noc(C(C)(C)OC)n3)ncn1-2 (stereo not drawn) [Compound 283]	< 100 nM	> 50%	–	–
Cn1cc2c(n1)-c1cc(Cl)ccc1-n1cnc(-c3noc(C(F)(F)F)n3)c1C2 [Compound 144]	< 100 nM	20 to 50%	–	–
CC(C)n1cc2c(n1)-c1cc(Cl)ccc1-n1cnc(-c3noc(C4CC4)n3)c1C2 [Compound 149]	< 100 nM	20 to 50%	–	–
